Data: ChEMBL document CHEMBL1275330, “Rational design, synthesis, and evaluation of new selective inhibitors of microbial class II (zinc dependent) fructose bis-phosphate aldolases” (J Med Chem, 2010)

Key:
Type in all cases: tissue-based
Conditions in all cases: Muscle tissue
[1] = Selectivity ratio of Km/ki for rabbit muscle […] Fba to Km/ki for Helicobacter pylori recombinant zinc dependent class 2 Fba
[2] = Selectivity ratio of Km/ki for rabbit muscle […] Fba to Km/ki for Candida albicans zinc dependent class 2 Fba
[3] = Selectivity ratio of Km/ki for rabbit muscle […] Fba to Km/ki for Mycobacterium tuberculosis zinc dependent class 2 Fba

O=C(COP(=O)(O)O)N(O)CCCO
Ratio [1]: 600
Ratio [2]: 34000
Ratio [3]: 20000

CCCCCCCCCCCC(=O)OCCCCN(O)C(=O)COP(=O)(O)O
Ratio [1]: 19
Ratio [2]: 475
Ratio [3]: 305

O=C(COP(=O)(O)O)N(O)CCCOP(=O)(O)O
Ratio [1]: 23000
Ratio [2]: 7500
Ratio [3]: 28000
